From US11377418B2, “Compounds and methods for treating influenza” (Macau University of Science and Technology, priority 2020, dated 2022) come the findings set out here.

In experiment [1] the test system is influenza A H1N1 (A/PR/8/34 virus). The experiment can be described thus: cytopathic effect (CPE) inhibition assay in MDCK cells. The class given is cell-based. Background: Cytopathic effects are the visible damage that an infection or toxin causes in cultured cells.
Experiment [2] deals with NF-κB activation. The experiment can be described thus: NF-κB-driven luciferase reporter assay in TNF-α-induced HEK293 cells. The experiment is classed as cell-based, Human. Particulars: luciferase activity, 20 ng/mL TNF-α, compound 100, 50, 25 or 12.5 μM, 24 h, FIGS. 1 to 4.
The subject of experiment [3] is influenza virus. Kind of experiment: NF-κB signalling inhibition, effect on influenza virus titers (in vitro and in vivo).

Entries after “also recorded” stand apart in the source; their conditions may differ. Read-outs that look alike come from different tables or passages of the source.

Take `CC(=O)OC[C@H](Cc1ccccc1)NC(=O)[C@H](Cc1ccccc1)NC(=O)c1ccccc1` [Compound 1, (S)-2-((S)-2-benzamido-3-phenylpropanamido)-3-phenylpropyl acetate, reference compound]: the midpoint of inhibition in experiment [1] (Influenza A virus, MDCK, 48 h), the IC50, lay at 74.3 µM.
In experiment [1] (Influenza A virus, MDCK, 48 h), `CC(=O)OC[C@H](Cc1ccccc1)NC(=O)[C@H](Cc1ccccc1)NC(=O)c1ccc(F)cc1` [Compound 3, (S)-2-((S)-2-(4-fluorobenzamido)-3-phenylpropanamido)-3-phenylpropyl acetate] returned a half-maximal inhibitory concentration (IC50) of 42.4 µM.
On the same count and under the same terms, the same measure for `CC(=O)OC[C@H](Cc1ccc(F)cc1)NC(=O)[C@H](Cc1ccccc1)NC(=O)c1ccccc1` [Compound 4, (S)-2-((S)-2-benzamido-3-phenylpropanamido)-3-(4-fluorophenyl)propyl acetate]: 29.6 µM; for `CC(=O)OC[C@H](Cc1ccccc1)NC(=O)[C@H](Cc1ccc(F)cc1)NC(=O)c1ccc(F)cc1` [Compound 5, (S)-2-((S)-2-(4-fluorobenzamido)-3-(4-fluorophenyl)propanamido)-3-phenylpropyl acetate]: 37.9 µM.
Consider `CC(=O)OC[C@H](Cc1ccc(F)cc1)NC(=O)[C@H](Cc1ccc(F)cc1)NC(=O)c1ccccc1` [Compound 6, (S)-2-((S)-2-benzamido-3-(4-fluorophenyl)propanamido)-3-(4-fluorophenyl)propyl acetate], for which, in experiment [1] (Influenza A virus, MDCK, 48 h), the IC50 was 19.2 µM. The “inhibition towards NF-κB activation (in words)” value in experiment [2] was “strongest inhibition effect; also recorded: strong inhibitory effect”.
As for `CC(=O)OC[C@H](Cc1ccc(F)cc1)NC(=O)[C@H](Cc1ccccc1)NC(=O)c1ccc(F)cc1` [Compound 7, (S)-2-((S)-2-(4-fluorobenzamido)-3-phenylpropanamido)-3-(4-fluorophenyl)propyl acetate], the IC50 in experiment [1] is 13.5 µM; in experiment [1] (Influenza A virus, MDCK, 48 h), below 14.3 µM.
With `O=C(N[C@@H](Cc1ccccc1)C(=O)N[C@H](CO)Cc1ccccc1)c1ccccc1` [Compound 9, N—((S)-1-(((S)-1-hydroxy-3-phenylpropan-2-yl)amino)-1-oxo-3-phenylpropan-2-yl)benzamide, reference compound], 34 µM corresponded to half-maximal inhibition in experiment [1] (Influenza A virus, MDCK, 48 h) (IC50).
With `O=C(N[C@@H](Cc1ccc(F)cc1)C(=O)N[C@H](CO)Cc1ccccc1)c1ccccc1` [Compound 10, N—((S)-3-(4-fluorophenyl)-1-(((S)-1-hydroxy-3-phenylpropan-2-yl)amino)-1-oxopropan-2-yl)benzamide], the IC50 is 14.3 µM in experiment [1] and below 14.3 µM in experiment [1] (Influenza A virus, MDCK, 48 h). Further, the “anti-influenza virus effect (in words)” value in experiment [1] (CPE inhibition, MDCK cells, A/PR/8/34 (H1N1)) is recorded as “potent inhibitory effect”. Also, the “inhibition towards NF-κB activation (in words)” value in experiment [2] was “potent inhibitory effect; also recorded: strong inhibitory effect; also recorded: excellent inhibitory effects”.
In turn, `O=C(N[C@@H](Cc1ccccc1)C(=O)N[C@H](CO)Cc1ccccc1)c1ccc(F)cc1` [Compound 11, 4-fluoro-N—((S)-1-(((S)-1-hydroxy-3-phenylpropan-2-yl)amino)-1-oxo-3-phenylpropan-2-yl)benzamide] gave an IC50 in experiment [1] (Influenza A virus, MDCK, 48 h) of 47 µM.
As for `CC(C)(C)c1ccc(S(=O)(=O)/C=C/C#N)cc1` [Compound 11-7085], the “influenza virus titers (in words)” value in experiment [3] is “dramatic reduction of influenza virus titers”.
`O=C(N[C@@H](Cc1ccccc1)C(=O)N[C@H](CO)Cc1ccc(F)cc1)c1ccccc1` [Compound 12, N—((S)-1-(((S)-1-(4-fluorophenyl)-3-hydroxypropan-2-yl)amino)-1-oxo-3-phenylpropan-2-yl)benzamide] displayed a concentration for half-maximal inhibition (IC50) in experiment [1] (Influenza A virus, MDCK, 48 h) of 17.4 µM.
Regarding `O=C(N[C@@H](Cc1ccc(F)cc1)C(=O)N[C@H](CO)Cc1ccccc1)c1ccc(F)cc1` [Compound 13], the IC50 in experiment [1] is 10.5 µM; in experiment [1] (Influenza A virus, MDCK, 48 h), below 14.3 µM.
For the molecule `O=C(N[C@@H](Cc1ccc(F)cc1)C(=O)N[C@H](CO)Cc1ccc(F)cc1)c1ccccc1` [Compound 14, N—((S)-3-(4-fluorophenyl)-1-(((S)-1-(4-fluorophenyl)-3-hydroxypropan-2-yl)amino)-1-oxopropan-2-yl)benzamide], inhibition in experiment [1] (Influenza A virus, MDCK, 48 h) was half-maximal at 19.7 µM (IC50). In addition, the “inhibition towards NF-κB activation (in words)” value in experiment [2] is listed as “strongest inhibition effect; also recorded: strong inhibitory effect”.
As for `O=C(N[C@@H](Cc1ccccc1)C(=O)N[C@H](CO)Cc1ccc(F)cc1)c1ccc(F)cc1` [Compound 15, 4-fluoro-N—((S)-1-(((S)-1-(4-fluorophenyl)-3-hydroxypropan-2-yl)amino)-1-oxo-3-phenylpropan-2-yl)benzamide], the IC50 in experiment [1] (Influenza A virus, MDCK, 48 h) came to 38.7 µM.
Consider `CC(=O)Oc1ccccc1C(=O)O` [acetylsalicyclic acid (ASA), acetylsalicyclic acid], for which the “influenza virus titers (in words)” value in experiment [3] is reported as “dramatic reduction of influenza virus titers”.

Usually IC50 stands for the point on the concentration scale where inhibition reaches its midpoint.
